Values after ≈ are worked out from the molar mass of the structure shown. Read-outs that look alike come from different tables or passages of the source. Where a SMILES comes first, the peptide text is derived from it. [ ]: non-standard residue; d: D form.
Assays:
[1] = test system: MDRAB 12036; type: cell-based, Acinetobacter baumannii
Method in brief: (§1)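 Broth microdilution in MH medium: bacterial strains diluted to 2×10^6 CFU were mixed with equal volumes of peptide serially diluted twofold in MH medium.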

[2] = test system: MDRST 8009; type: cell-based, Salmonella typhimurium; conditions: agent alone
Method in brief: as §1

[3] = test system: A. baumannii; assay: microbe, parasite or virus in culture; type: cell-based, Acinetobacter baumannii
Method in brief: as §1

[4] = test system: MDRAB 12035; assay: microbe, parasite or virus in culture; type: cell-based, Acinetobacter baumannii
Method in brief: as §1

[5] = test system: S. typhimurium; assay: microbe, parasite or virus in culture; type: cell-based, Salmonella typhimurium
Method in brief: as §1

[6] = test system: A. baumannii; assay: MIC of antimicrobial peptide during combined treatment with antibiotic; type: cell-based, Acinetobacter baumannii
Method in brief: (§2)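 Strains in MH medium at 2×10^6 CFU/ml were mixed with peptide diluted stepwise (2:1) from its MIC, then antibiotic dilutions in MH medium were added to give the antibiotic MIC. The reversed set-up, peptide titrated against fixed antibiotic, gave the peptide MIC.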

[7] = test system: MDRAB 12035; assay: as above; type: cell-based, Acinetobacter baumannii
Method in brief: as §2

[8] = test system: E. coli; type: cell-based, Escherichia coli; conditions: E. coli
Method in brief: as §2

[9] = test system: MDREC 1229; type: cell-based, Escherichia coli
Method in brief: as §2

[10] = test system: gram-negative bacteria; assay: MIC, summary statements for gram-negative bacteria; type: cell-based; conditions: most of the gram-negative bacteria
Method in brief: as §1

[11] = test system: A. baumannii; type: cell-based, Acinetobacter baumannii
Protocol: (§3) A synergistic effect of a peptide and antibiotics was evaluated at antibacterial activity against a strain by using an MIC value determined for each mixed solution. For the evaluation, a fractional inhibitory concentration (FIC) value was used (Elion, Gertrude B., Samuel Singer, and George H. Hitchings. Journal of Biological Chemistry 208.2 (1954): 477-488.).
(§4) A method generally used to decide the synergistic effect by using the FIC values is a checkerboard assay, and is a method that selects the lowest FIC index value in a well in which the growth of bacteria is suppressed. However, the selection of one FIC index in the method has a problem in that when the antibacterial activity of the antibiotics is lower, the FIC index is calculated so as to have a big synergistic effect, and is not accurate and has many experimental errors. Thus, with respect to the FIC index calculated by [Equation 1], an average FIC index was again calculated by using the following [Equation 2] (He, Jing, Charles G. Starr, and William C. Wimley. Biochimica et Biophysica Acta (BBA)-Biomembranes 1848.1 (2015): 8-15.).

[12] = test system: MDRAB 12035; type: cell-based, Acinetobacter baumannii
Protocol: as §3, §4

[13] = test system: E. coli; type: cell-based, Escherichia coli
Protocol: as §3, §4

[14] = test system: MDREC 1229; type: cell-based, Escherichia coli; remark: listed apart in the source
Protocol: as §3, §4

[15] = test system: multi-drug resistant bacteria; assay: MIC, summary statements for multi-drug resistant bacteria; type: cell-based
Method in brief: as §1

[16] = erythromycin 4 μg/ml (Conc./MIC 1/8)
[17] = erythromycin 8 μg/ml (Conc./MIC 1/4)
[18] = erythromycin 16 μg/ml (Conc./MIC 1/2)
[19] = erythromycin 32 μg/ml (Conc./MIC 1)
[20] = linezolid 32 μg/ml (Conc./MIC 1/8)
[21] = linezolid 64 μg/ml (Conc./MIC 1/4)
[22] = vancomycin 512 μg/ml (Conc./MIC 1/2)
[23] = vancomycin 1024 μg/ml (Conc./MIC 1)
[24] = linezolid 64 μg/ml (Conc./MIC 1/8)
[25] = linezolid 512 μg/ml (Conc./MIC 1)
[26] = with Erythromycin […] (Conc./MIC 1)
[27] = with Linezolid […] (Conc./MIC 1)
[28] = with Vancomycin 1024 μg/ml (Conc./MIC 1)
[29] = peptide combined with erythromycin
[30] = peptide combined with linezolid
[31] = peptide combined with vancomycin

Structure (SMILES): CC[C@H](C)[C@H](NC(=O)[C@H](CCCCN)NC(=O)[C@H](Cc1c[nH]c2ccccc12)NC(=O)[C@@H](N)CCCNC(=N)N)C(=O)N[C@@H](Cc1ccccc1)C(=O)N[C@@H](CCCCN)C(=O)N[C@@H](CCCCN)C(=O)N[C@H](C(=O)N1CCC[C@H]1C(=O)N[C@@H](CCCCN)C(=O)N[C@@H](CC(C)C)C(=O)N[C@@H](CC(C)C)C(=O)N[C@@H](Cc1c[nH]cn1)C(=O)N[C@@H](CO)C(=O)N[C@@H](CC(C)C)C(=O)N[C@@H](CCCCN)C(=O)N[C@@H](CCCCN)C(=O)N[C@@H](Cc1ccccc1)C(N)=O)[C@@H](C)CC [PapMA-8, RWK IFK KIP KLL HSL KKF-NH2] (H-RWKIFKKIPKLLHSLKKF-NH2; N-terminus assumed)
- Minimal inhibitory concentration MIC [1]: 64 µg/mL (≈ 27.7 µM)
- Minimal inhibitory concentration MIC [2]: 64 µg/mL (≈ 27.7 µM)
- Minimal inhibitory concentration MIC [3]: 32 µg/mL (≈ 13.9 µM)
- Peptide MIC, peptide alone [3]: 32 µg/mL
- Minimal inhibitory concentration MIC [4]: 64 µg/mL (≈ 27.7 µM)
- Peptide MIC, peptide alone [4]: 64 µg/mL
- Minimal inhibitory concentration MIC [5]: 32 µg/mL (≈ 13.9 µM)
- Peptide MIC during treatment with antibiotic [6, 16]: 4 µg/mL
- Peptide MIC during treatment with antibiotic [6, 17]: 4 µg/mL
- Peptide MIC during treatment with antibiotic [6, 18]: 2 µg/mL
- Peptide MIC during treatment with antibiotic [6, 19]: 0 µg/mL
- Peptide MIC during treatment with antibiotic [6, 20]: 4 µg/mL
- Peptide MIC during treatment with antibiotic [6, 21]: 2 µg/mL
- Peptide MIC during treatment with antibiotic ([6]; linezolid […] (Conc./MIC 1)): 0 µg/mL
- Peptide MIC during treatment with antibiotic ([6]; linezolid […] (Conc./MIC 1/2)): 2 µg/mL
- Peptide MIC during treatment with antibiotic [6, 22]: 1 µg/mL
- Peptide MIC during treatment with antibiotic [6, 23]: 0 µg/mL
- Peptide MIC during treatment with antibiotic ([6]; vancomycin […] (Conc./MIC 1/4)): 1 µg/mL
- Peptide MIC during treatment with antibiotic ([6]; vancomycin […] (Conc./MIC 1/8)): 4 µg/mL
- Peptide MIC during treatment with erythromycin [7, 16]: 8 µg/mL
- Peptide MIC during treatment with erythromycin [7, 17]: 8 µg/mL
- Peptide MIC during treatment with erythromycin [7, 18]: 4 µg/mL
- Peptide MIC during treatment with erythromycin [7, 19]: 0 µg/mL
- Peptide MIC during treatment with linezolid [7, 24]: 4 µg/mL
- Peptide MIC during treatment with linezolid [7, 25]: 0 µg/mL
- Peptide MIC during treatment with linezolid ([7]; linezolid […] (Conc./MIC 1/2)): 1 µg/mL
- Peptide MIC during treatment with linezolid ([7]; linezolid […] (Conc./MIC 1/4)): 2 µg/mL
- Peptide MIC during treatment with vancomycin [7, 22]: 2 µg/mL
- Peptide MIC during treatment with vancomycin [7, 23]: 1 µg/mL
- Peptide MIC during treatment with vancomycin ([7]; vancomycin […] (Conc./MIC 1/4)): 2 µg/mL
- Peptide MIC during treatment with vancomycin ([7]; vancomycin […] (Conc./MIC 1/8)): 4 µg/mL
- Peptide MIC [8, 26]: 0 µg/mL
- Peptide MIC [8, 27]: 0 µg/mL
- Peptide MIC [8, 28]: 0 µg/mL
- Peptide MIC [9, 26]: 0 µg/mL
- Peptide MIC ([9]; with Linezolid 512 μg/ml (Conc./MIC 1)): 0 µg/mL
- Antibacterial activity relative to PapMA-1, PapMA-2, PapMA-3 and PapMA-4 [10]: same or higher

Structure (SMILES): CC[C@H](C)[C@H](NC(=O)[C@H](CCCCN)NC(=O)[C@H](Cc1c[nH]c2ccccc12)NC(=O)[C@@H](N)CCCNC(=N)N)C(=O)N[C@@H](Cc1ccccc1)C(=O)N[C@@H](CCCCN)C(=O)N[C@@H](CCCCN)C(=O)N[C@H](C(=O)N[C@H](CC(C)C)C(=O)N[C@@H](CCCCN)C(=O)N[C@@H](CC(C)C)C(=O)N[C@@H](CC(C)C)C(=O)N[C@@H](Cc1c[nH]cn1)C(=O)N[C@@H](CCCCN)C(=O)N[C@@H](Cc1ccccc1)C(=O)N[C@@H](CCCCN)C(=O)N[C@@H](CCCCN)C(=O)N[C@@H](Cc1ccccc1)C(N)=O)[C@@H](C)CC [PapMA-21, RWK IFK KIl KLL HKF KKF-NH2] (H-RWKIFKKI[dL]KLLHKFKKF-NH2; N-terminus assumed)
- Average FIC index, Erythromycin [11, 29]: 0.40
- Average FIC index, Linezolid [11, 30]: 0.35
- Average FIC index, Vancomycin [11, 31]: 0.11
- Average FIC index, Erythromycin [12, 29]: 0.49
- Average FIC index, Linezolid [12, 30]: 0.22
- Average FIC index, Vancomycin [12, 31]: 0.17
- Minimal inhibitory concentration MIC ([1]; MDRAB 12036, agent alone): 32 µg/mL (≈ 13.3 µM)
- Minimal inhibitory concentration MIC [2]: 32 µg/mL (≈ 13.3 µM)
- Minimal inhibitory concentration MIC [3]: 32 µg/mL (≈ 13.3 µM)
- Peptide MIC, peptide alone [3]: 32 µg/mL
- Antibacterial activity relative to PapMA-1 ([3]; A. baumannii and S. typhimurium): at least twice as high
- Minimal inhibitory concentration MIC ([4]; MDRAB 12035, agent alone): 32 µg/mL (≈ 13.3 µM)
- Peptide MIC, peptide alone ([4]; MDRAB 12035, no antibiotic): 32 µg/mL
- Average FIC index, Erythromycin [13, 29]: 0.15
- Average FIC index, Linezolid [13, 30]: 0.35
- Average FIC index, Vancomycin [13, 31]: 0.21
- Average FIC index, Erythromycin [14, 29]: 0.15
- Average FIC index, Linezolid [14, 30]: 0.28
- Average FIC index, Vancomycin [14, 31]: 0.26
- Minimal inhibitory concentration MIC [5]: 32 µg/mL (≈ 13.3 µM)
- Antibacterial activity relative to PapMA-1 [15]: twice to four times higher
- Peptide MIC during treatment with erythromycin [6, 16]: 8 µg/mL
- Peptide MIC during treatment with erythromycin [6, 17]: 4 µg/mL
- Peptide MIC during treatment with erythromycin [6, 18]: 2 µg/mL
- Peptide MIC during treatment with erythromycin [6, 19]: 0 µg/mL
- Peptide MIC during treatment with linezolid [6, 20]: 4 µg/mL
- Peptide MIC during treatment with linezolid [6, 21]: 4 µg/mL
- Peptide MIC during treatment with linezolid ([6]; linezolid […] (Conc./MIC 1)): 0 µg/mL
- Peptide MIC during treatment with linezolid ([6]; linezolid […] (Conc./MIC 1/2)): 1 µg/mL
- Peptide MIC during treatment with vancomycin [6, 22]: 0.25 µg/mL
- Peptide MIC during treatment with vancomycin [6, 23]: 0 µg/mL
- Peptide MIC during treatment with vancomycin ([6]; vancomycin […] (Conc./MIC 1/4)): 0.5 µg/mL
- Peptide MIC during treatment with vancomycin ([6]; vancomycin […] (Conc./MIC 1/8)): 4 µg/mL
- Peptide MIC during treatment with erythromycin [7, 16]: 8 µg/mL
- Peptide MIC during treatment with erythromycin [7, 17]: 8 µg/mL
- Peptide MIC during treatment with erythromycin [7, 18]: 4 µg/mL
- Peptide MIC during treatment with erythromycin [7, 19]: 0 µg/mL
- Peptide MIC during treatment with linezolid [7, 24]: 4 µg/mL
- Peptide MIC during treatment with linezolid [7, 25]: 0 µg/mL
- Peptide MIC during treatment with linezolid ([7]; linezolid […] (Conc./MIC 1/2)): 1 µg/mL
- Peptide MIC during treatment with linezolid ([7]; linezolid […] (Conc./MIC 1/4)): 4 µg/mL
- Peptide MIC during treatment with vancomycin [7, 22]: 2 µg/mL
- Peptide MIC during treatment with vancomycin [7, 23]: 1 µg/mL
- Peptide MIC during treatment with vancomycin ([7]; vancomycin […] (Conc./MIC 1/4)): 4 µg/mL
- Peptide MIC during treatment with vancomycin ([7]; vancomycin […] (Conc./MIC 1/8)): 4 µg/mL
- Peptide MIC ([8]; with Erythromycin 16 μg/ml (Conc./MIC 1/8)): 4 µg/mL
- Peptide MIC ([8]; with Erythromycin 32 μg/ml (Conc./MIC 1/4)): 2 µg/mL
- Peptide MIC ([8]; with Erythromycin 64 μg/ml (Conc./MIC 1/2)): 1 µg/mL
- Peptide MIC [8, 26]: 0 µg/mL
- Peptide MIC ([8]; with Linezolid 32 μg/ml (Conc./MIC 1/8)): 8 µg/mL
- Peptide MIC ([8]; with Linezolid 64 μg/ml (Conc./MIC 1/4)): 4 µg/mL
- Peptide MIC [8, 27]: 0 µg/mL
- Peptide MIC ([8]; with Linezolid […] (Conc./MIC 1/2)): 2 µg/mL
- Peptide MIC ([8]; with Vancomycin 512 μg/ml (Conc./MIC 1/2)): 2 µg/mL
- Peptide MIC [8, 28]: 0 µg/mL
- Peptide MIC ([8]; with Vancomycin […] (Conc./MIC 1/4)): 4 µg/mL
- Peptide MIC ([8]; with Vancomycin […] (Conc./MIC 1/8)): 8 µg/mL
- Peptide MIC during treatment with antibiotic ([9]; erythromycin 32 μg/ml (Conc./MIC 1/8)): 2 µg/mL
- Peptide MIC during treatment with antibiotic ([9]; erythromycin 64 μg/ml (Conc./MIC 1/4)): 2 µg/mL
- Peptide MIC during treatment with antibiotic ([9]; erythromycin […] (Conc./MIC 1)): 0 µg/mL
- Peptide MIC during treatment with antibiotic ([9]; erythromycin […] (Conc./MIC 1/2)): 1 µg/mL
- Peptide MIC during treatment with antibiotic [9, 24]: 8 µg/mL
- Peptide MIC during treatment with antibiotic [9, 25]: 0 µg/mL
- Peptide MIC during treatment with antibiotic ([9]; linezolid […] (Conc./MIC 1/2)): 1 µg/mL
- Peptide MIC during treatment with antibiotic ([9]; linezolid […] (Conc./MIC 1/4)): 4 µg/mL
- Peptide MIC during treatment with antibiotic [9, 22]: 2 µg/mL
- Peptide MIC during treatment with antibiotic [9, 23]: 2 µg/mL
- Peptide MIC during treatment with antibiotic ([9]; vancomycin […] (Conc./MIC 1/4)): 4 µg/mL
- Peptide MIC during treatment with antibiotic ([9]; vancomycin […] (Conc./MIC 1/8)): 8 µg/mL

— patent US11214594B2, “Antimicrobial peptide having synergistic antibacterial effect with antibiotics on multidrug resistant bacteria, and use thereof” (priority 2016, dated 2022)
